Tests used:
[1] = activity previously reported for the compound; cited from earlier work
[2] = molecular target: cysteine proteases from epimastigotes of Trypanosoma cruzi strain INC-5; assay: Enzyme inhibition, protease extract, substrate Z-Phe-Arg-MCA; format: biochemical; conditions: protein extract of INC-5 epimastigotes, Z-Phe-Arg-MCA 5 µM, compounds 6.25–200 µM, pH 6.5
Description: T. cruzi epimastigotes of the INC-5 strain were used to obtain a protein extract quantified by the Bradford method. Evaluation of the activity was carried out using the synthetic fluorogenic peptide Z-Phe-Arg-MCA as a substrate at 5 µM, with 1 μg of the enzyme extract and the corresponding compounds (Z2, Z3, Z5, and Z6) at different concentrations (6.25–200 µM) using a reaction buffer (50 mM Na2HPO4, 100 mM NaCl, 5 mM EDTA, 2.5 mM dithiothreitol; pH 6.5) at room temperature. As a negative control of enzyme inhibition, the substrate without compounds was evaluated with 2% DMSO (concentration corresponding to the highest dilution of the compounds). Hydrolysis of the substrate was monitored in a continuous assay for 1 h in the Spectramax M5 spectrofluorometer (Molecular Devices) at 380 nm excitation and 440 nm emission. The mean of fluorescence changes was normalized taking the control (without inhibitor) as 100%. The IC50 values were determined from semilog concentration-response plots using the nonlinear curve-fitting method.

[3] = tested on: T. cruzi INC-5 epimastigotes; assay: microbe, parasite or virus in culture; conditions: for CC50: Trypanosoma cruzi, read-out: LC50 Epimastigotes T. cruzi INC-5
Text: (§1) For biological evaluation, the compounds Z2 (ZINC9873043), Z3 (ZINC9870651), Z5 (ZINC9715287), and Z6 (ZINC9861447) were selected and purchased from Molport https://www.molport.com (accessed on: 03 March 2018). For evaluation of trypanocidal activity of the selected compounds, two strains (NINOA and INC-5) in the epimastigote or trypomastigote stage of T. cruzi were used. Each strain was used to infect CD-1 mice (18–20 g) intraperitoneally with a concentration of 1 × 10^6 trypomastigotes/mL of blood. In the maximum peak of parasitemia, blood was obtained by cardiac puncture using heparin as an anticoagulant. The parasite concentration was then adjusted with isotonic saline (0.85% NaCl), and 90 μL of blood was used to achieve a concentration of 1 × 10^6 trypomastigotes/mL of blood. A 10 μL sample of each compound was evaluated in 96-well plates. The treatments performed consisted of a negative control, which contained dimethylsulfoxide (DMSO 2.5%) and the four compounds selected from virtual screening. […] Once the selected compounds were added after being homogenized with blood, the plates were incubated at 4 °C for 24 h. Once the incubation time had elapsed, the plates were kept at room temperature for 30 min, and then an aliquot of 5 μL was taken from each well, a fresh preparation was made, and the viable trypomastigotes were counted using the Pizzi method. A calculation of the number of viable trypomastigotes per mL of blood was carried out, and the survival percentages were obtained taking 100% of the negative control. Each test was done in triplicate. […] The LC50 values were determined using Probit statistical analysis of the dose-response, and the results were expressed as the mean of the standard deviation. The results were later converted to micromolar units.

[4] = tested on: T. cruzi INC-5 bloodstream trypomastigotes; assay: microbe, parasite or virus in culture; conditions: Trypanosoma cruzi, 24 h, read-out: LC50 Bloodstream Trypomastigotes T. cruzi INC-5
Text: as §1

[5] = tested on: T. cruzi NINOA bloodstream trypomastigotes; assay: microbe, parasite or virus in culture; conditions: Trypanosoma cruzi, 24 h, read-out: LC50 Bloodstream Trypomastigotes T. cruzi NINOA
Text: as §1

epimastigote = tested on: epimastigote; parameters: method as in PMID 20961766; conditions: read-out: IC50 replication of the epimastigote; cited from earlier work
[6] = tested on: trypomastigotes of T. cruzi of the Tulahúen strain in mouse fibroblasts (L929); parameters: method as in Ferreira et al. (2010) and Pinto et al. (2017); conditions: infected L929 fibroblasts, ref Ferreira et al. (2010) and Pinto et al. (2017); cited from earlier work

Row | Compound | Activity Reported [1] | IC50 [2] [µM] | CC50 [3] [µM] | CC50 [4] [µM] | CC50 [5] [µM] | IC50 (epimastigote) [µM] | IC50 [6] [µM] | LC50 Epimastigotes T. cruzi INC-5 ([3]; half maximal lytic concentration, epimastigotes, INC-5 strain)
1 | Cc1nnc(SCC(=O)N2N=C(c3ccc4ccccc4c3)C[C@@H]2c2ccccc2)n(N)c1=O [Z5] | Amine oxidase inhibitor | 56.2 | 36.3 ± 9.9 | 185 ± 8.5 | 166 ± 14.5 | – | – | –
2 | C[C@H](/C=C/C(=O)C=O)NC(=O)[C@@H](Cc1ccccc1)NC(=O)OCc1ccccc1 [compound 186, reference compound] | Cz inhibitor | – | – | – | – | – | – | –
3 | O=C(Cn1ccnc1[N+](=O)[O-])NCc1ccccc1 [Bzn, benznidazole, reference compound] | – | – | 9.64 ± 4.2 | 225 ± 26.5 | – | 1.8 | – | –
4 | O=C(CCC(=O)N1CCC(c2ccccc2)=N1)N1CCN(S(=O)(=O)c2ccc3c(c2)CCC3)CC1 [Z7] | Inhibitor of aldo keto reductases | – | – | – | – | – | – | –
5 | Cc1ccc(NC(=O)CCC(=O)N2CCC(c3ccccc3)=N2)cc1S(=O)(=O)N1CCCCC1 [Z2] | Inhibitor of cannabinoid receptor type 2 | > 200 | 239 ± 9.3 | > 250 | > 250 | – | – | –
6 | CN1N=C(C(=O)N2CCc3c(c(C(=O)N4CCOCC4)nn3CCCc3ccccc3)C2)CCC1=O [Z8] | Inhibitor of cathepsin S | – | – | – | – | – | – | –
7 | Clc1ccc2[nH]c3c(NCCCN4CCOCC4)ncnc3c2c1 [S1, 8-chloro-N-(3-morpholinopropyl)-5H-pyrimido[5,4-b]-indol-4-amine, reference compound] | – | > 200 | > 250 | > 250 | – | – | 2.5 | did not show an effect
8 | Cc1ccc(C2=NN(C(=O)CN3C(=O)N[C@](C)(c4ccc(F)c(F)c4)C3=O)[C@H](c3ccco3)C2)cc1 [Z6] | Amine oxidase inhibitor | 50.4 | > 250 | > 250 | > 250 | – | – | –
9 | C[C@@H](Sc1nnc(C2CCCCC2)o1)C(=O)N1N=C(c2ccc(Cl)cc2)C[C@@H]1c1ccco1 [Z10] | Amine oxidase inhibitor | – | – | – | – | – | – | –
10 | COc1ccc([C@H]2CC(c3ccc4ccccc4c3)=NN2C(=O)Cn2cnc3ccsc3c2=O)cc1 [Z4] | Amine oxidase inhibitor | – | – | – | – | – | – | –
11 | C[C@H]1CCc2sc(-c3nnc(SCC(=O)N4N=C(c5ccco5)C[C@@H]4c4ccco4)o3)cc2C1 [Z3] | – | 84.4 | > 250 | > 250 | > 250 | – | – | –

Source: publication PMC6479639, “Structure-Based Virtual Screening and In Vitro Evaluation of New Trypanosoma cruzi Cruzain Inhibitors” (International Journal of Molecular Sciences, 2019)
